The conditions of data set [1]: Pubchem, ST093573; cited from earlier work.
In data set [2] the test system is Tnf-α, Zo-1 and E-cad mRNA expression in gut epithelium. Description: Ex vivo treatment of gut mucosa with OLA, rescue with indole and IPA, qPCR. In kind it is cell-based. The following applies: OLA 5 mg/ml, 3 h ex vivo; all mice genotypes. On the procedure: Freshly isolated gut mucosa were incubated in the presence of OLA (5 mg/ml) for 3 h at 37° C., 5% CO2 (13). After 3 h of OLA treatment, enterocytes were isolated and pooled for RNA isolation. […] Experiments were performed at least two independent times. OLA has […] (log P), thus is unsuitable for in vivo studies of luminal bacterial enzyme inhibition (Pubchem, ST093573). 2.0 μg of total RNA extracted from pooled apical enterocytes with TRIzolR (Invitrogen), were reverse transcribed with random hexamer primers and SuperScriptTM III-RT enzyme (Invitrogen). Quantitative PCR (qPCR) reactions using TaqMan universal PCR master mix and TaqMan probes containing FAM as the 5' reporter fluorochrome and tetramethylrhodamine (MGB) as the 3' quencher fluorochrome, were performed in triplicate for each sample and analyzed on the ABI Prism 7900HT system. Primers and minor groove binder/non-fluorescent quencher probes used for PCR amplification were obtained from Applied Biosystems as well as the following assays on demand: […] Controls include RT-minus RNA samples. PCR reaction conditions for all assays were set at 50° C. for 2 minutes, 95° C. for 10 minutes, followed by 40 cycles of amplification (95° C. for 15 seconds then 60° C. for 1 minute).
(Real-time PCR tracks product formation cycle by cycle.)

The structures appear in SMILES notation.

With `NC(CC1C(=O)Nc2ccccc21)C(=O)O` [OLA, Oxindolyl L-alanine], the “Predicted oral bioavailability (log P)” value in data set [1] is on record as “high”. Besides, in data set [2], the “Enterocyte Tnf-α mRNA expression after OLA” value is “enhanced enterocyte Tnf-α mRNA expression”; the “Expression of junctional regulators (Zo-1 and E-cad) after OLA” value is recorded as “diminished expression of junctional regulators”.

(Values after US9925222B2, “Gut barrier dysfunction treatment and prevention” (ALBERT EINSTEIN COLLEGE OF MEDICINE OF YESHIVA UNIVERSITY, priority 2012, dated 2018).)
